These are literature values, as cited in US12667579B2, “Pharmaceutical compositions for clinical nutrition” (BAXTER INTERNATIONAL INC., priority 2021, dated 2026).

Data set [1] has as its system serum alkaline phosphatases.
The conditions of data set [2]: compounded with 96 mEq/L of calcium chloride.
The conditions of data set [3]: ingested orally or enterally.

Take sodium glycerophosphate [SGP]: in data set [1] (individuals with normal serum alkaline phosphatase, hydrolysis completely in plasma), the “amount hydrolyzed each day” value is 12 to 15 mmol. Further, the “plasma concentration at which maximum hydrolysis occurs” value in data set [1] (plasma, hydrolysis to inorganic phosphate and glycerol) was over 700 µM. Also, the “concentration up to which SGP is stable in compounded solutions” value in data set [2] is listed as “up to 120 mmol/L”. The solubility in acetone entry (acetone) is listed as “essentially insoluble”. Moreover, for the setting “ethanol”, the solubility in ethanol entry is “essentially insoluble”. Besides, under “water”, the solubility in water entry is “freely soluble”.
Turning to `[Al]` [aluminum], the “share of ingested aluminum reaching the blood stream” value in data set [3] was under 1%.
